Results taken from ChEMBL document CHEMBL3813632, “Thiazolo[3,2-a]benzimidazol-3(2H)-one derivatives: Structure-activity relationships of selective nucleotide pyrophosphatase/phosphodiesterase1 (NPP1) inhibitors” (Bioorg Med Chem, 2016).
Activity calls are given as the source filed them. The rule behind the calls is not given here.

Key:
Homo sapiens = organism: Homo sapiens; experiment: Selectivity ratio of Ki for human recombinant TNAP to Ki for human recombinant NPP1
[1] = Retention time of the compound in MgCl2/CaCl2/CHES buffer at pH 9 by LC-MS analysis; format: physicochemical
[2] = biological target: T1, Ectonucleotide pyrophosphatase/phosphodiesterase family member 1 (Homo sapiens) (UniProt P22413); experiment: Uncompetitive inhibition of human recombinant NPP1 expressed in insect SF9 cells using ATP as substrate up to 2.8 uM preincubated with substrate followed by protein addition and subsequent incubation for 30 mins by Hanes-Woolf plot analysis
T1 sequence (whole entry): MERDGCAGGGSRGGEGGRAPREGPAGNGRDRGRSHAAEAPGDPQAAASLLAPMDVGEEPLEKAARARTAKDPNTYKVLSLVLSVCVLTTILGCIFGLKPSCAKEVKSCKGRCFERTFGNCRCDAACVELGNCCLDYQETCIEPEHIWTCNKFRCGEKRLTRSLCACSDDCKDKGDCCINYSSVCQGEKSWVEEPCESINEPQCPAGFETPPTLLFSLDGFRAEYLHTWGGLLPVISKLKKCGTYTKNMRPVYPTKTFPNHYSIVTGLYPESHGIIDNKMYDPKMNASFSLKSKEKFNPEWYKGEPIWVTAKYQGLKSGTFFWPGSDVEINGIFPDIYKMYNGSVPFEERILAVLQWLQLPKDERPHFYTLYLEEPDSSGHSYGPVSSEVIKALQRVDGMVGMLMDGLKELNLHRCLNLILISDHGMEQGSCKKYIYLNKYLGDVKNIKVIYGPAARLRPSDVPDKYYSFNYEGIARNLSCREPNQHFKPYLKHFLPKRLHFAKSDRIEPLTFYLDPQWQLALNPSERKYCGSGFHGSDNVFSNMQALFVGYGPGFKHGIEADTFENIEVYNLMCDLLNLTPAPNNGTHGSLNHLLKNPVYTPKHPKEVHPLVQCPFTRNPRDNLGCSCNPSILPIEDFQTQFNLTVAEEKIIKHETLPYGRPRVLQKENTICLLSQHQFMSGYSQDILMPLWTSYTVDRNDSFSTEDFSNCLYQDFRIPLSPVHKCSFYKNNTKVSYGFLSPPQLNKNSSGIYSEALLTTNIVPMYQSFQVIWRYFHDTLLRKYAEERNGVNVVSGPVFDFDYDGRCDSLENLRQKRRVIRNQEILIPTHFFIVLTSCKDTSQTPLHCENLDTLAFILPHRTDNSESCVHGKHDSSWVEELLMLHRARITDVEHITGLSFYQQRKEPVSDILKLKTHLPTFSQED

[3] = Drug metabolism of the compound in MgCl2/CaCl2/CHES buffer assessed as 2-hydroxy-3-(5-iodofuran-2-yl)-1-(2-thioxo-2,3-dihydro-1H-benzo[d]imidazol-1-yl)prop-2-en-1-one metabolite formation at pH 9 after 24 hrs by LC-MS analysis; format: physicochemical; conditions: pH 9, 24 h

## O=c1/c(=C/c2ccc(I)o2)sc2nc3ccccc3n12
Homo sapiens
  Ratio Ki: 1000
[1]
  Retention_time: 8.2 min
[2]
  inhibition: Active
[3]
  Drug metabolism: metabolite_detected
